Measurements as given in US12060347B2 (BRISTOL-MYERS SQUIBB COMPANY, priority 2016, dated 2024).

What follows are molecules tested against T1, human PAR4 (Homo sapiens, UniProt Q96RI0) (assay: PAR4 FLIPR assay: antagonism of agonist-peptide-induced calcium mobilization in PAR4-expressing HEK293 cells). Details: H-Ala-Phe(4-F)-[…]NH2-induced intracellular calcium mobilization, 11-point curves.
T1 construct: expressed in transfected cells; host or cells: HEK293 PAR4 Clone 1.2A (BMS Arctic ID 383940)
T1 sequence (Q96RI0 18-385): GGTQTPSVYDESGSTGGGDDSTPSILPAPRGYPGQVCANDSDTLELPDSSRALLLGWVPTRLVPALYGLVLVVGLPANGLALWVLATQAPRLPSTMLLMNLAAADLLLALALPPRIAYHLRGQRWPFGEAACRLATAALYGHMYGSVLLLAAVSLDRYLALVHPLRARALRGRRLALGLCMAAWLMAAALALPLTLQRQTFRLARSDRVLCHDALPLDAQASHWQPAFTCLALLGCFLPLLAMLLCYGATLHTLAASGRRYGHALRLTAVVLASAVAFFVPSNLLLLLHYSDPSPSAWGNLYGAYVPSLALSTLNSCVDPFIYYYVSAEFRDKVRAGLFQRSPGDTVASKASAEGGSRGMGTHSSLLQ
Format: cell-based

| IC50 [nM] | SMILES |
| --- | --- |
| 4.6 | COc1cnc2c(-c3nc4cc(F)c(OC[C@@H](C)OC(=O)Nc5ccc(C(=O)NCC(C)(C)CO)nc5)cc4s3)cc(C)cc2n1 [Example 472, (R)-1-((5-fluoro-2-(2-methoxy-7-methylquinoxalin-5-yl)benzo[d]thiazol-6-yl)oxy)propan-2-yl (6-((3-hydroxy-2,2-dimethylpropyl)carbamoyl)pyridin-3-yl)carbamate] |
| 3.4 | COc1cnc2c(-c3nc4cc(F)c(OC[C@@H](C)OC(=O)Nc5ccc(C(=O)NCC6(CO)CCC6)nc5)cc4s3)cc(C)cc2n1 [Example 473, (R)-1-((5-fluoro-2-(2-methoxy-7-methylquinoxalin-5-yl)benzo[d]thiazol-6-yl)oxy)propan-2-yl (6-(((1-(hydroxymethyl)cyclobutyl)methyl)carbamoyl)pyridin-3-yl)carbamate] |
| 11 | COc1cnc2c(-c3nc4cc(F)c(OC[C@@H](C)OC(=O)Nc5ccc(C(=O)N(C)CC(C)(C)O)nc5)cc4s3)cc(C)cc2n1 [Example 474, (R)-1-((5-fluoro-2-(2-methoxy-7-methylquinoxalin-5-yl)benzo[d]thiazol-6-yl)oxy)propan-2-yl (6-((2-hydroxy-2-methylpropyl)(methyl)carbamoyl)pyridin-3-yl)carbamate] |
| 4.8 | COc1cnc2c(-c3nc4cc(F)c(OC[C@@H](C)OC(=O)Nc5ccc(C(=O)N6CC[C@@H](O)C6)nc5)cc4s3)cc(C)cc2n1 [Example 475] |
| 10 | COc1cnc2c(-c3nc4cc(F)c(OC[C@@H](C)OC(=O)Nc5ccc(C(=O)N6CC[C@@H](CO)C6)nc5)cc4s3)cc(C)cc2n1 [Example 476, (R)-1-((5-fluoro-2-(2-methoxy-7-methylquinoxalin-5-yl)benzo[d]thiazol-6-yl)oxy)propan-2-yl (6-((R)-3-(hydroxymethyl)pyrrolidine-1-carbonyl)pyridin-3-yl)carbamate] |
| 3 | COc1cnc2c(-c3nc4cc(F)c(OC[C@@H](C)OC(=O)Nc5ccc(C(=O)N6CCO[C@H](CO)C6)nc5)cc4s3)cc(C)cc2n1 [Example 477, (R)-1-((5-fluoro-2-(2-methoxy-7-methylquinoxalin-5-yl)benzo[d]thiazol-6-yl)oxy)propan-2-yl (6-((S)-2-(hydroxymethyl)morpholine-4-carbonyl)pyridin-3-yl)carbamate] |
| 9.1 | COc1cnc2c(-c3nc4cc(F)c(OC[C@@H](C)OC(=O)Nc5ccc(C(=O)N6CC[C@H](O)C6)nc5)cc4s3)cc(C)cc2n1 [Example 478, (R)-1-((5-fluoro-2-(2-methoxy-7-methylquinoxalin-5-yl)benzo[d]thiazol-6-yl)oxy)propan-2-yl (6-((S)-3-hydroxypyrrolidine-1-carbonyl)pyridin-3-yl)carbamate] |
| 1.4 | COc1cnc2c(-c3nc4cc(F)c(OC[C@@H](C)OC(=O)Nc5ccc(C(=O)N6CC[C@H](CO)C6)nc5)cc4s3)cc(C)cc2n1 [Example 479, (R)-1-((5-fluoro-2-(2-methoxy-7-methylquinoxalin-5-yl)benzo[d]thiazol-6-yl)oxy)propan-2-yl (6-((S)-3-(hydroxymethyl)pyrrolidine-1-carbonyl)pyridin-3-yl)carbamate] |
| 3.4 | COc1cnc2c(-c3nc4cc(F)c(OC[C@@H](C)OC(=O)Nc5ccc(C(=O)N6CCO[C@@H](CO)C6)nc5)cc4s3)cc(C)cc2n1 [Example 480, (R)-1-((5-fluoro-2-(2-methoxy-7-methylquinoxalin-5-yl)benzo[d]thiazol-6-yl)oxy)propan-2-yl (6-((R)-2-(hydroxymethyl)morpholine-4-carbonyl)pyridin-3-yl)carbamate] |
| 0.6 | COc1cnc2c(-c3nc4cc(F)c(O[C@@H](C)[C@@H](C)OC(=O)Nc5ccc(C(=O)N6CCC[C@H](O)C6)nc5)cc4s3)cc(C)cc2n1 [Example 481, (2R,3S)-3-((5-fluoro-2-(2-methoxy-7-methylquinoxalin-5-yl)benzo[d]thiazol-6-yl)oxy)butan-2-yl (6-((S)-3-hydroxypiperidine-1-carbonyl)pyridin-3-yl)carbamate] |
| 0.6 | COc1cnc2c(-c3nc4cc(F)c(O[C@@H](C)[C@@H](C)OC(=O)Nc5ccc(C(=O)N6CC[C@H](CO)C6)nc5)cc4s3)cc(C)cc2n1 [Example 482, (2R,3S)-3-((5-fluoro-2-(2-methoxy-7-methylquinoxalin-5-yl)benzo[d]thiazol-6-yl)oxy)butan-2-yl (6-((S)-3-(hydroxymethyl)pyrrolidine-1-carbonyl)pyridin-3-yl)carbamate] |
| 0.8 | COc1cnc2c(-c3nc4cc(F)c(O[C@@H](C)[C@@H](C)OC(=O)Nc5ccc(C(=O)N6CCC[C@@H](O)C6)nc5)cc4s3)cc(C)cc2n1 [Example 483, (2R,3S)-3-((5-fluoro-2-(2-methoxy-7-methylquinoxalin-5-yl)benzo[d]thiazol-6-yl)oxy)butan-2-yl (6-((R)-3-hydroxypiperidine-1-carbonyl)pyridin-3-yl)carbamate] |
| 1 | COc1cnc2c(-c3nc4cc(F)c(OC[C@@H](C)OC(=O)Nc5ccc(C(=O)N6CCC[C@H](O)C6)nc5)cc4s3)cc(C)cc2n1 [Example 484, (R)-1-((5-fluoro-2-(2-methoxy-7-methylquinoxalin-5-yl)benzo[d]thiazol-6-yl)oxy)propan-2-yl (6-((S)-3-hydroxypiperidine-1-carbonyl)pyridin-3-yl)carbamate] |
| 1.6 | COc1cnc2c(-c3nc4cc(F)c(OC[C@@H](C)OC(=O)Nc5ccc(C(=O)N6CCC[C@@H](O)C6)nc5)cc4s3)cc(C)cc2n1 [Example 485, (R)-1-((5-fluoro-2-(2-methoxy-7-methylquinoxalin-5-yl)benzo[d]thiazol-6-yl)oxy)propan-2-yl (6-((R)-3-hydroxypiperidine-1-carbonyl)pyridin-3-yl)carbamate] |
| 1.3 | COc1cnc2c(-c3nc4cc(F)c(O[C@@H](C)[C@@H](C)OC(=O)Nc5ccc(C(=O)N6CCOC[C@@H]6CO)nc5)cc4s3)cc(C)cc2n1 [Example 487, (2R,3S)-3-((5-fluoro-2-(2-methoxy-7-methylquinoxalin-5-yl)benzo[d]thiazol-6-yl)oxy)butan-2-yl (6-((S)-3-(hydroxymethyl)morpholine-4-carbonyl)pyridin-3-yl)carbamate] |
| 14 | COc1cnc2c(-c3nc4cc(F)c(OC[C@@H](C)OC(=O)Nc5ccc(C(=O)N6CCOC[C@H]6CO)nc5)cc4s3)cc(C)cc2n1 [Example 488, (R)-1-((5-fluoro-2-(2-methoxy-7-methylquinoxalin-5-yl)benzo[d]thiazol-6-yl)oxy)propan-2-yl (6-((R)-3-(hydroxymethyl)morpholine-4-carbonyl)pyridin-3-yl)carbamate] |
| 9.1 | COc1cnc2c(-c3nc4cc(F)c(OC[C@@H](C)OC(=O)Nc5ccc(C(=O)N6CCOC[C@@H]6CO)nc5)cc4s3)cc(C)cc2n1 [Example 489, (R)-1-((5-fluoro-2-(2-methoxy-7-methylquinoxalin-5-yl)benzo[d]thiazol-6-yl)oxy)propan-2-yl (6-((S)-3-(hydroxymethyl)morpholine-4-carbonyl)pyridin-3-yl)carbamate] |
| 5.1 | Cc1cc(-c2nc3cc(F)c(O[C@@H](C)[C@@H](C)OC(=O)Nc4cnc(C)nc4)cc3s2)c2ncc(OC(F)F)nc2c1 [Example 490, (2R,3S)-3-((2-(2-(difluoromethoxy)-7-methylquinoxalin-5-yl)-5-fluorobenzo[d]thiazol-6-yl)oxy)butan-2-yl (2-methylpyrimidin-5-yl)carbamate] |
| 0.4 | CCCOc1cnc2c(-c3nc4cc(F)c(O[C@@H](C)[C@@H](C)OC(=O)Nc5cnc(C)nc5)cc4s3)cc(C)cc2n1 [Example 491, (2R,3S)-3-((5-fluoro-2-(7-methyl-2-propoxyquinoxalin-5-yl)benzo[d]thiazol-6-yl)oxy)butan-2-yl (2-methylpyrimidin-5-yl)carbamate] |
| 7.4 | Cc1cc(-c2nc3cc(F)c(O[C@@H](C)[C@@H](C)OC(=O)Nc4cnc(C)nc4)cc3s2)c2ncc(OC(C)C)nc2c1 [Example 492, (2R,3S)-3-((5-fluoro-2-(2-isopropoxy-7-methylquinoxalin-5-yl)benzo[d]thiazol-6-yl)oxy) butan-2-yl (2-methylpyrimidin-5-yl)carbamate] |
| 21 | Cc1cc(-c2nc3cc(F)c(O[C@@H](C)[C@@H](C)OC(=O)Nc4cnc(C)nc4)cc3s2)c2ncc(OCCO)nc2c1 [Example 493, (2R,3S)-3-((5-fluoro-2-(2-(2-hydroxyethoxy)-7-methylquinoxalin-5-yl)benzo[d]thiazol-6-yl)oxy)butan-2-yl (2-methylpyrimidin-5-yl)carbamate] |
| 1.8 | COc1cnc2c(-c3nc4c(Cl)c(F)c(OC[C@@H](C)OC(=O)Nc5ccnc(CO)c5)cc4s3)cc(C)cc2n1 [Example 494, (R)-1-((4-chloro-5-fluoro-2-(2-methoxy-7-methylquinoxalin-5-yl)benzo[d]thiazol-6-yl)oxy)propan-2-yl (2-(hydroxymethyl)pyridin-4-yl)carbamate] |
| 15 | COc1cnc2c(-c3nc4cc(F)c(OC[C@@H](C)OC(=O)Nc5ccnc(CO)c5)cc4s3)cc(C)cc2n1 [Example 495, (R)-1-((5-fluoro-2-(2-methoxy-7-methylquinoxalin-5-yl)benzo[d]thiazol-6-yl)oxy)propan-2-yl (2-(hydroxymethyl)pyridin-4-yl)carbamate] |
| 1.9 | COc1cnc2c(-c3nc4cc(F)c(OC[C@@H](C)OC(=O)Nc5cnc(CO)nc5)cc4s3)cc(C)cc2n1 [Example 496, (R)-1-((5-fluoro-2-(2-methoxy-7-methylquinoxalin-5-yl)benzo[d]thiazol-6-yl)oxy)propan-2-yl (2-(hydroxymethyl)pyrimidin-5-yl)carbamate] |
